Source: patent publication US8962843B2, “1,3,4-oxadiazole and 1,3,4-thiadiazole beta-lactamase inhibitors” (priority 2012, dated 2015)
Counter-ions that a name gives are not always drawn.

How the values were obtained:
[1] = tested on: bacterial strains that express the class D cephalosporinase OXA-15; experiment: Standard BLI potentiation MIC / synergy MIC assays, strains expressing OXA-15; assay type: cell-based, E. coli; conditions: in combination with a β-lactam; comparator Avibactam (CCC)
Outline: (§1)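 Broth microdilution in cation-adjusted Mueller Hinton broth per CLSI M07-A9, ~10^5 CFU/mL, 18-20 h at 37 °C with aeration; engineered E. coli carrying β-lactamase plasmids kept on 25 μg/mL tetracycline. β-lactam MIC measured in 2-fold dilutions (128-0.13 μg/mL) with BLI fixed at 4 μg/mL; sMIC titrates BLI against a fixed β-lactam concentration. MIC = lowest concentration without visible turbidity.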

[2] = tested on: bacterial strains that express KPC β-lactamases; experiment: Standard BLI potentiation MIC / synergy MIC assays, strains expressing KPC β-lactamases; assay type: cell-based; conditions: in combination with a β-lactam; comparator Avibactam
Outline: as §1

Row | Compound | activity against bacterial strains that express the class D cephalosporinase OXA-15, compared with Avibactam [1] | activity and/or spectrum of activity against bacterial strains that express KPC β-lactamases, compared with Avibactam [2]
1 | O=C1N2C[C@@H](CC[C@H]2c2nnc(CCNC3CCNCC3)o2)N1OS(=O)(=O)O [Compound 770, (2S,5R)-7-oxo-2-(5-(2-(piperidin-4-ylamino)ethyl)-1,3,4-oxadiazol-2-yl)-1,6-diazabicyclo[3.2.1]octan-6-yl hydrogen sulfate] | more active than Avibactam | more active than Avibactam for at least one, bacterial strain that expresses KPC β-lactamase and/or show a better spectrum of activity
2 | NCc1nnc([C@@H]2CC[C@@H]3CN2C(=O)N3OS(=O)(=O)O)o1 [Compound 702, (2S,5R)-2-(5-(aminomethyl)-1,3,4-oxadiazol-2-yl)-7-oxo-1,6-diazabicyclo[3.2.1]octan-6-yl hydrogen sulfate] | more active than Avibactam | more active than Avibactam for at least one, bacterial strain that expresses KPC β-lactamase and/or show a better spectrum of activity
3 | O=C1N2C[C@@H](CC[C@H]2c2nnc(C3CC4(CNC4)C3)o2)N1OS(=O)(=O)O [Compound 750, (2S,5R)-2-(5-(2-azaspiro[3.3]heptan-6-yl)-1,3,4-oxadiazol-2-yl)-7-oxo-1,6-diazabicyclo[3.2.1]octan-6-yl hydrogen sulfate] | more active than Avibactam | more active than Avibactam for at least one, bacterial strain that expresses KPC β-lactamase and/or show a better spectrum of activity
4 | O=C1N2C[C@@H](CC[C@H]2c2nnc([C@H]3CNCCN3)o2)N1OS(=O)(=O)O [Compound 779, (2S,5R)-7-oxo-2-(5((R)-piperazin-2-yl)-1,3,4-oxadiazol-2-yl)-1,6-diazabicyclo[3.2.1]octan-6-yl hydrogen sulfate] | more active than Avibactam | more active than Avibactam for at least one, bacterial strain that expresses KPC β-lactamase and/or show a better spectrum of activity
5 | N=C(N)NC1(Cc2nnc([C@@H]3CC[C@@H]4CN3C(=O)N4OS(=O)(=O)O)o2)CC1 [Compound 739, (2S,5R)-2-(5-((1-guanidinocyclopropyl)methyl)-1,3,4-oxadiazol-2-yl)-7-oxo-1,6-diazabicyclo[3.2.1]octan-6-yl hydrogen sulfate] | more active than Avibactam | more active than Avibactam for at least one, bacterial strain that expresses KPC β-lactamase and/or show a better spectrum of activity
6 | N[C@H]1C[C@@H](c2nnc([C@@H]3CC[C@@H]4CN3C(=O)N4OS(=O)(=O)O)s2)C1 [Compound 795, (2S,5R)-2-(5-((1s,3R)-3-aminocyclobutyl)-1,3,4-thiadiazol-2-yl)-7-oxo-1,6-diazabicyclo[3.2.1]octan-6-yl hydrogen sulfate] | more active than Avibactam | more active than Avibactam for at least one, bacterial strain that expresses KPC β-lactamase and/or show a better spectrum of activity
7 | O=C1N2C[C@@H](CC[C@H]2c2nnc(CCCNC3CCNCC3)o2)N1OS(=O)(=O)O [Compound 771, (2S,5R)-7-oxo-2-(5-(3-(piperidin-4-ylamino)propyl)-1,3,4-oxadiazol-2-yl)-1,6-diazabicyclo[3.2.1]octan-6-yl hydrogen sulfate] | more active than Avibactam | more active than Avibactam for at least one, bacterial strain that expresses KPC β-lactamase and/or show a better spectrum of activity
8 | O=C1N2C[C@@H](CC[C@H]2c2nnc([C@H]3[C@@H]4CNC[C@@H]43)o2)N1OS(=O)(=O)O [Compound 740, (2S,5R)-2-(5-(3-azabicyclo[3.1.0]hexan-6-yl)-1,3,4-oxadiazol-2-yl)-7-oxo-1,6-diazabicyclo[3.2.1]octan-6-yl hydrogen sulfate] | more active than Avibactam | more active than Avibactam for at least one, bacterial strain that expresses KPC β-lactamase and/or show a better spectrum of activity
9 | N[C@H]1C[C@H](c2nnc([C@@H]3CC[C@@H]4CN3C(=O)N4OS(=O)(=O)O)s2)C1 [Compound 783, (2S,5R)-2-(5-((1r,3S)-3-aminocyclobutyl)-1,3,4-thiadiazol-2-yl)-7-oxo-1,6-diazabicyclo[3.2.1]octan-6-yl hydrogen sulfate] | more active than Avibactam | more active than Avibactam for at least one, bacterial strain that expresses KPC β-lactamase and/or show a better spectrum of activity
10 | N=C(N)NCC1(c2nnc([C@@H]3CC[C@@H]4CN3C(=O)N4OS(=O)(=O)O)o2)CC1 [Compound 723, (2S,5R)-2-(5-(1-(guanidinomethyl)cyclopropyl)-1,3,4-oxadiazol-2-yl)-7-oxo-1,6-diazabicyclo[3.2.1]octan-6-yl hydrogen sulfate] | more active than Avibactam | more active than Avibactam for at least one, bacterial strain that expresses KPC β-lactamase and/or show a better spectrum of activity
11 | O=C1N2C[C@@H](CC[C@H]2c2nnc(CNC3CNC3)o2)N1OS(=O)(=O)O [Compound 726, (2S,5R)-2-(5-((azetidin-3-ylamino)methyl)-1,3,4-oxadiazol-2-yl)-7-oxo-1,6-diazabicyclo[3.2.1]octan-6-yl hydrogen sulfate] | more active than Avibactam | more active than Avibactam for at least one, bacterial strain that expresses KPC β-lactamase and/or show a better spectrum of activity
12 | O=C1N2C[C@@H](CC[C@H]2c2nnc(CN3CCNCC3)o2)N1OS(=O)(=O)O [Compound 777, (2S,5R)-7-oxo-2-(5-(piperazin-1-ylmethyl)-1,3,4-oxadiazol-2-yl)-1,6-diazabicyclo[3.2.1]octan-6-yl hydrogen sulfate] | more active than Avibactam | more active than Avibactam for at least one, bacterial strain that expresses KPC β-lactamase and/or show a better spectrum of activity
13 | O=C1N2C[C@@H](CC[C@H]2c2nnc(CC3CCNC3)o2)N1OS(=O)(=O)O (stereo partly drawn) [Compound 764, (2S,5R)-7-oxo-2-(5-(pyrrolidin-3-ylmethyl)-1,3,4-oxadiazol-2-yl)-1,6-diazabicyclo[3.2.1]octan-6-yl hydrogen sulfate] | more active than Avibactam | more active than Avibactam for at least one, bacterial strain that expresses KPC β-lactamase and/or show a better spectrum of activity
14 | N[C@@H]1CC[C@H](c2nnc([C@@H]3CC[C@@H]4CN3C(=O)N4OS(=O)(=O)O)o2)C1 [Compound 729, (2S,5R)-2-(5-((1S,3R)-3-aminocyclopentyl)-1,3,4-oxadiazol-2-yl)-7-oxo-1,6-diazabicyclo[3.2.1]octan-6-yl hydrogen sulfate] | more active than Avibactam | more active than Avibactam for at least one, bacterial strain that expresses KPC β-lactamase and/or show a better spectrum of activity
15 | N[C@H]1CN[C@H](c2nnc([C@@H]3CC[C@@H]4CN3C(=O)N4OS(=O)(=O)O)o2)C1 [Compound 762, (2S,5R)-2-(5-((2S,4R)-4-aminopyrrolidin-2-yl)-1,3,4-oxadiazol-2-yl)-7-oxo-1,6-diazabicyclo[3.2.1]octan-6-yl hydrogen sulfate] | more active than Avibactam | more active than Avibactam for at least one, bacterial strain that expresses KPC β-lactamase and/or show a better spectrum of activity
16 | O=C1N2C[C@@H](CC[C@H]2c2nnc(CN[C@@H]3CCNC3)o2)N1OS(=O)(=O)O [Compound 766, (2S,5R)-7-oxo-2-(5-(((R)-pyrrolidin-3-ylamino)methyl)-1,3,4-oxadiazol-2-yl)-1,6-diazabicyclo[3.2.1]octan-6-yl hydrogen sulfate] | more active than Avibactam | more active than Avibactam for at least one, bacterial strain that expresses KPC β-lactamase and/or show a better spectrum of activity
17 | O=C1N2C[C@@H](CC[C@H]2c2nnc(COC3CNC3)o2)N1OS(=O)(=O)O [Compound 744, (2S,5R)-2-(5-((azetidin-3-yloxy)methyl)-1,3,4-oxadiazol-2-yl)-7-oxo-1,6-diazabicyclo[3.2.1]octan-6-yl hydrogen sulfate] | more active than Avibactam | more active than Avibactam for at least one, bacterial strain that expresses KPC β-lactamase and/or show a better spectrum of activity
